Results on eleven molecules are retold here after ChEMBL document CHEMBL5500368, “Discovery of novel diaryl substituted isoquinolin-1(2H)-one derivatives as hypoxia-inducible factor-1 signaling inhibitors for the treatment of rheumatoid arthritis” (Eur J Med Chem, 2024).

As a reminder, the CC50 is the concentration that lowers cell viability or growth by half. Lower therefore signals harm at low concentration. The term pIC50 denotes the negative decadic logarithm of the IC50, by convention in mol/L.

Data set [1] can be described thus: Cytotoxicity against human MH7A cells.
A short description of data set [2]: Inhibition of HIF-1 (unknown origin) expressed in MH7A cells cotransfected with HRE and renilla luciferase assessed as reduction in luminescence signal preincubated for 1 hr under normoxic condition followed by 24 hrs incubation under hypoxic condition by dual luciferase reporter assay. Conditions: Homo sapiens. On the technique in general: A reporter such as luciferase makes a cellular process visible.

pIC50: −log10 of the molar value.

On to `O=c1c2ccc(-c3ccccc3O)cc2ccn1CCc1ccccc1`, for which the CC50 in data set [1] was over 50 µM. Also, the pIC50 in data set [2] is 6.04.

`O=c1c2ccc(-c3ccc(O)cc3)cc2ccn1CCc1ccccc1` showed a CC50 in data set [1] of over 50 µM. The pIC50 in data set [2] is 6.09.

`COc1ccc(-c2ccc3c(=O)n(Cc4ccccc4F)ccc3c2)cc1` gave a CC50 in data set [1] of over 50 µM. Besides, in data set [2], the pIC50 is 5.45.

`COc1ccccc1-c1ccc2c(=O)n(Cc3ccccc3F)ccc2c1` returned a CC50 in data set [1] of over 50 µM. For the same molecule, in data set [2], the pIC50 is 5.17.

On to `O=c1c2ccc(-c3cccc(O)c3)cc2ccn1CCc1ccccc1`, for which, in data set [1], the CC50 is over 50 µM. Further, the pIC50 in data set [2] is 5.13.

In data set [1], `COc1ccccc1-c1ccc(C(=O)NCCc2ccccc2F)nc1` displayed a CC50 of over 50 µM. Also, the pIC50 in data set [2] was 5.34.

Consider `O=c1c2ccc(-c3ccoc3)cc2ccn1Cc1ccccc1`, for which the CC50 in data set [1] is over 50 µM. Moreover, the pIC50 in data set [2] is 5.23.

For `O=c1c2ccc(-c3ccc(F)cc3)cc2ccn1CCc1ccccc1`, the CC50 in data set [1] is over 50 µM. In addition, the pIC50 in data set [2] is 5.21.

Regarding `COc1ccccc1-c1ccc2c(=O)n(CCc3ccccc3)ccc2c1`, in data set [1], the CC50 was over 50 µM. The pIC50 in data set [2] is 5.48.

Molecule `O=c1c2ccc(-c3ccoc3)cc2ccn1Cc1ccccc1F` came in with a CC50 in data set [1] of over 50 µM. Besides, in data set [2], the pIC50 is 5.84.

On to `COc1ccc(-c2ccc3c(=O)n(CCc4ccccc4)ccc3c2)cc1`, for which the CC50 in data set [1] is over 50 µM. In data set [2], the pIC50 was 5.66.
